Read-outs that look alike come from different tables or passages of the source.
How the values were obtained:
[1] = system: HepG2 cells; assay: HepG2 cytotoxicity assay; details: for Pb ODA (this manuscript) HepG2 cytoxicity: HepG2 cytotoxicity listed with the Pb ODA data set (this manuscript); for IC50: read-out: HepG2 cytotoxicity assay IC50, dose response confirmation
Experimental: Briefly, HepG2 cells were seeded onto compound-treated 384 well plates at a density of 2,500 cells per well in Minimal Essential Medium (MEM) plus 10% fetal bovine serum and 1% non-essential amino acids solution (NEAA). Cells were incubated with test compounds or 50 μM doxorubicin (positive) and DSMO (negative) controls at 37°C for 48 h in a humidified 5% CO2 atmosphere. […] Cell viability was then measured in a fluorescent plate reader and percent inhibition calculated with respect to positive and negative controls.

[2] = system: 3D7-strain P. falciparum asexual parasites; assay: P. falciparum asexual growth inhibition assay (Pf GIA); format: cell-based, Plasmodium falciparum; details: dose response confirmation; read-out: Pf asexual growth inhibition assays IC50
Experimental: The asexual activity of active compounds was tested in dose response with parasite lactate dehydrogenase (LDH) activity used as a readout of parasite viability as described in [Gamo et al. (2010)]. Briefly, 3D7-strain P. falciparum asexual parasites were diluted to 0.25% parasitemia, 2% hematocrit in culture medium composed of RPMI medium with 25 mM HEPES, 2% D-sucrose, 0.3% L-glutamine, 150 μM hypoxanthine plus 5% albumax. 25 μl of parasite inoculum was then dispensed into each well of a 384 well plate containing test compounds and positive (50 μM chloroquine) and negative (DMSO) controls. Plates were incubated for 72 h at 37°C in a 5% CO2, 5%O2, 90% N2 environment before being frozen at −70°C. Plates were then thawed and 70 μl of reaction mix (143 mM sodium L-lactate, 143 mM 3-acetyl pyridine adenine dinucleotide, […] Nitro Blue tetrazolium chloride, […] diaphorase (2.83 U/ml), 0.7% Tween 20, 100 mM Tris–HCl pH 8.0) was added to each well using a Multidrop Combi automated dispenser. Plates were shaken to mix and then absorbance at 650 nm was measured after 10 min incubation at room temperature. Percent inhibition of asexual growth was then calculated with respect to positive and negative controls. Data presented is the mean of three independent biological replicates.

[3] = system: P. berghei ookinete development; details: for % inhibition, Replicate A / % inhibition, Replicate B: primary screen at 1 μM
[4] = read-out: Pb ODA (this manuscript) IC50, P. berghei ookinete development assay, this manuscript
[5] = read-out: Pb Ookinete development assay IC50, dose response confirmation
[6] = unified HepG2 value across the three screens
[7] = read-out: Pb ODA IC50, this manuscript

## O=c1c2c([nH]c3cc(Cl)ccc13)CCCC2 [TCMDC-123504]
[1]
  Pb ODA (this manuscript) HepG2 cytoxicity: 100.00 µM
  IC50: 100000 nM
[2]
  IC50: 824 nM
[3]
  Is compound selective in assay? Pb ODA active?: 1 (key: 1: YES; 0: NO)
  % inhibition, Replicate A: 114.67%
  % inhibition, Replicate B: 120.99%
[3]; [4]
  IC50: 1240 nM
[3]; [5]
  IC50: 1240 nM

## O=C(NCC1CCCCC1)c1cc(=O)c2ccccc2o1 [TCMDC-123621]
[1]
  IC50: 100000 nM
[1]; [6]
  Unified cytotox: 100.00 µM
[2]
  IC50: 563 nM
[3]; 1: YES, 0: NO
  Is compound selective in assay? Pb ODA active?: 1 (1: YES)
[3]
  % inhibition, Replicate A: 49.08%
  % inhibition, Replicate B: 59.87%
[3]; [5]
  IC50: 1040 nM

## CC(=O)Nc1cccc(Nc2c3ccccc3nc3ccccc23)c1 [TCMDC-123741]
[1]
  IC50: 12300 nM
[1]; [6]
  Unified cytotox: 12.30 µM
[2]
  IC50: 1470 nM
[3]; 1: YES, 0: NO
  Is compound selective in assay? Pb ODA active?: 1 (1: YES)
[3]
  % inhibition, Replicate A: 54.87%
  % inhibition, Replicate B: 64.71%
[3]; [7]
  IC50: 690 nM
[3]; [5]
  IC50: 686 nM

## CSc1ccc(C=CC(=O)NC(=O)c2ccccc2O)cc1 [TCMDC-123758]
[1]
  IC50: 73300 nM
[1]; [6]
  Unified cytotox: 73.28 µM
[2]
  IC50: 179 nM
[3]; 1: YES, 0: NO
  Is compound selective in assay? Pb ODA active?: 1 (1: YES)
[3]
  % inhibition, Replicate A: 53.84%
  % inhibition, Replicate B: 38.37%
[3]; [7]
  IC50: 530 nM
[3]; [5]
  IC50: 526 nM

## Cc1cc(C(=O)OCC(=O)Nc2c(C)n(C)n(-c3ccccc3)c2=O)c(C)n1-c1ccc(F)cc1 [TCMDC-123794]
[1]
  IC50: 19500 nM
[1]; [6]
  Unified cytotox: 19.50 µM
[2]
  IC50: 43 nM
[3]; 1: YES, 0: NO
  Is compound selective in assay? Pb ODA active?: 1 (1: YES)
[3]
  % inhibition, Replicate A: 88.45%
  % inhibition, Replicate B: 92.59%
[3]; [5]
  IC50: 210 nM

## Cc1nc(/N=C(\N)NC(=O)NC2CCCCC2)nc2ccccc12 [TCMDC-123808]
[1]
  Pb ODA (this manuscript) HepG2 cytoxicity: 35.48 µM
  IC50: 35500 nM
[2]
  IC50: 1.7 nM
[3]
  Is compound selective in assay? Pb ODA active?: 1 (key: 1: YES; 0: NO)
  % inhibition, Replicate A: 57.73%
  % inhibition, Replicate B: 102.93%
[3]; [4]
  IC50: 1080 nM
[3]; [5]
  IC50: 1080 nM

## Cc1cc(NC(c2ccc(Cl)cc2)c2ccc3cccnc3c2O)no1 (stereo not shown) [TCMDC-123828]
[1]
  IC50: 1380 nM
[1]; [6]
  Unified cytotox: 1.38 µM
[2]
  IC50: 2550 nM
[3]; 1: YES, 0: NO
  Is compound selective in assay? Pb ODA active?: 0 (0: NO)
[3]
  % inhibition, Replicate A: 41.30%
  % inhibition, Replicate B: 61.82%
[3]; [7]
  IC50: 3020 nM
[3]; [5]
  IC50: 3020 nM

## Cc1sc2ncnc(Sc3nc4ccccc4[nH]3)c2c1C [TCMDC-123835]
[1]
  IC50: 100000 nM
[1]; [6]
  Unified cytotox: 100.00 µM
[2]
  IC50: 748 nM
[3]; 1: YES, 0: NO
  Is compound selective in assay? Pb ODA active?: 1 (1: YES)
[3]
  % inhibition, Replicate A: 69.92%
  % inhibition, Replicate B: 40.18%
[3]; [7]
  IC50: 920 nM
[3]; [5]
  IC50: 919 nM

## CCOC(=O)c1c[nH]c2c(ccc3ccccc32)c1=O [TCMDC-123857]
[1]
  IC50: 100000 nM
[1]; [6]
  Unified cytotox: 100.00 µM
[2]
  IC50: 443 nM
[3]; 1: YES, 0: NO
  Is compound selective in assay? Pb ODA active?: 1 (1: YES)
[3]
  % inhibition, Replicate A: 88.11%
  % inhibition, Replicate B: 83.13%
[3]; [7]
  IC50: 560 nM
[3]; [5]
  IC50: 562 nM

## Cc1ccc(C2=NNC3(S2)C(=O)N(C)c2ccccc23)cc1 (stereo not shown) [TCMDC-123863]
[1]
  IC50: 56900 nM
[1]; [6]
  Unified cytotox: 56.89 µM
[2]
  IC50: 3270 nM
[3]; 1: YES, 0: NO
  Is compound selective in assay? Pb ODA active?: 1 (1: YES)
[3]
  % inhibition, Replicate A: 93.73%
  % inhibition, Replicate B: 58.53%
[3]; [7]
  IC50: 2440 nM
[3]; [5]
  IC50: 2440 nM

## CN(C)c1ccc(C=Cc2nc(=O)c3ccccc3o2)cc1 [TCMDC-123870]
[1]
  Pb ODA (this manuscript) HepG2 cytoxicity: 100.00 µM
  IC50: 100000 nM
[2]
  IC50: 41 nM
[3]
  Is compound selective in assay? Pb ODA active?: 1 (key: 1: YES; 0: NO)
  % inhibition, Replicate A: 83.52%
  % inhibition, Replicate B: 65.62%
[3]; [4]
  IC50: 150 nM
[3]; [5]
  IC50: 155 nM

## O=C(c1cccs1)N1CCN(c2ccc([N+](=O)[O-])c(NC3CC3)c2)CC1 [TCMDC-123877]
[1]
  IC50: 100000 nM
[1]; [6]
  Unified cytotox: 100.00 µM
[2]
  IC50: 2660 nM
[3]; 1: YES, 0: NO
  Is compound selective in assay? Pb ODA active?: 1 (1: YES)
[3]
  % inhibition, Replicate A: 53.49%
  % inhibition, Replicate B: 54.36%
[3]; [7]
  IC50: 1700 nM
[3]; [5]
  IC50: 1700 nM

## O=c1nc(C=Cc2ccc(Br)cc2)oc2ccccc12 [TCMDC-123878]
[1]
  Pb ODA (this manuscript) HepG2 cytoxicity: 100.00 µM
  IC50: 100000 nM
[2]
  IC50: 1730 nM
[3]
  Is compound selective in assay? Pb ODA active?: 1 (key: 1: YES; 0: NO)
  % inhibition, Replicate A: 55.97%
  % inhibition, Replicate B: 32.93%
[3]; [4]
  IC50: 2720 nM
[3]; [5]
  IC50: 2720 nM

## Br.CC(CCON1C(N)=NC(N)=NC1(C)C)c1ccc(Cl)c(Cl)c1 (stereo not shown) [TCMDC-123922]
[1]; HepG2, this manuscript
  HepG2 cytoxicity (Pb ODA, this manuscript): 0.001 µM
[1]; HepG2 values of the three screens unified
  Unified cytotox: 0.001 µM
[1]
  IC50: 1 nM
[2]
  IC50: < 0.2 nM
[3]; 1: YES, 0: NO
  Is compound selective in assay? Pb ODA active?: 0 (0: NO)
[3]
  % inhibition, Replicate A: 47.79%
  % inhibition, Replicate B: 55.73%
[3]; [7]
  IC50: 5760 nM
[3]; [5]
  IC50: 5760 nM

## O=c1c2ccccc2[nH]c2cc(Cl)ccc12 [TCMDC-123989]
[1]
  IC50: 50700 nM
[1]; [6]
  Unified cytotox: 50.70 µM
[2]
  IC50: 1280 nM
[3]; 1: YES, 0: NO
  Is compound selective in assay? Pb ODA active?: 1 (1: YES)
[3]
  % inhibition, Replicate A: 43.19%
  % inhibition, Replicate B: 69.34%
[3]; [7]
  IC50: 1180 nM
[3]; [5]
  IC50: 1180 nM

## CC(Cl)=CCc1c(C)[nH]c2c(ccc3ccccc32)c1=O [TCMDC-124085]
[1]
  Pb ODA (this manuscript) HepG2 cytoxicity: 100.00 µM
  IC50: 100000 nM
[2]
  IC50: 276 nM
[3]
  Is compound selective in assay? Pb ODA active?: 1 (key: 1: YES; 0: NO)
  % inhibition, Replicate A: 85.49%
  % inhibition, Replicate B: 96.24%
[3]; [4]
  IC50: 330 nM
[3]; [5]
  IC50: 328 nM

## CCOC(=O)C(=O)N1c2ccc(OCC)cc2-c2c(ssc2=S)C1(C)C [TCMDC-124090]
[1]
  IC50: 100000 nM
[1]; [6]
  Unified cytotox: 100.00 µM
[2]
  IC50: 89 nM
[3]; 1: YES, 0: NO
  Is compound selective in assay? Pb ODA active?: 1 (1: YES)
[3]
  % inhibition, Replicate A: 23.50%
  % inhibition, Replicate B: 54.71%
[3]; [7]
  IC50: 2010 nM
[3]; [5]
  IC50: 2010 nM

## CC(C)c1nc(N2CCN(C(=S)NCc3ccccc3)CC2)c(C#N)c2c1COC(C)(C)C2 [TCMDC-124093]
[1]
  IC50: 1.7 nM
[1]; [6]
  Unified cytotox: 0.0017 µM
[2]
  IC50: 55 nM
[3]; 1: YES, 0: NO
  Is compound selective in assay? Pb ODA active?: 0 (0: NO)
[3]
  % inhibition, Replicate A: 50.94%
  % inhibition, Replicate B: 54.99%
[3]; [5]
  IC50: 760 nM

## Cc1cc(C)cc(-n2c(C)cc(/C=C3\SC(=Nc4ccc(Cl)cc4)NC3=O)c2C)c1 [TCMDC-124103]
[1]
  IC50: 100000 nM
[1]; [6]
  Unified cytotox: 100.00 µM
[2]
  IC50: 32 nM
[3]; 1: YES, 0: NO
  Is compound selective in assay? Pb ODA active?: 1 (1: YES)
[3]
  % inhibition, Replicate A: 110.51%
  % inhibition, Replicate B: 94.72%
[3]; [7]
  IC50: 560 nM
[3]; [5]
  IC50: 561 nM

## CCOC(=O)c1c(CN2CCCC2)n(-c2ccccc2)c2cc(Br)c(O)cc12 [TCMDC-124122]
[1]
  IC50: 71600 nM
[1]; [6]
  Unified cytotox: 71.61 µM
[2]
  IC50: 658 nM
[3]; 1: YES, 0: NO
  Is compound selective in assay? Pb ODA active?: 0 (0: NO)
[3]
  % inhibition, Replicate A: 64.42%
  % inhibition, Replicate B: 39.97%
[3]; [7]
  IC50: 7760 nM
[3]; [5]
  IC50: 7760 nM

## Cc1ccc(Nc2nc(N/N=C/c3cccc(O)c3)nc(Nc3ccc([N+](=O)[O-])cc3)n2)cc1C [TCMDC-124125]
[1]
  IC50: 100000 nM
[1]; [6]
  Unified cytotox: 100.00 µM
[2]
  IC50: 1820 nM
[3]; 1: YES, 0: NO
  Is compound selective in assay? Pb ODA active?: 1 (1: YES)
[3]
  % inhibition, Replicate A: 68.98%
  % inhibition, Replicate B: 54.76%
[3]; [7]
  IC50: 3830 nM
[3]; [5]
  IC50: 3830 nM
